Laboratory results as given in US20250145633A1, “SUBSTITUTED FURANOPYRIMIDINE COMPOUNDS AS PDE1 INHIBITORS” (Dart NeuroScience, LLC, priority 2017, published 2025).

Molecular target: human PDE1B enzyme (Homo sapiens (Human), UniProt Q01064)
Test: IMAP TR-FRET PDE1B enzymatic assay
Assay type: biochemical
Conditions: negative log of half-maximal molar inhibitory concentration; 200 nM FAM-cAMP; values given as bins
Summary of the method: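 Full-length GST-tagged human PDE1B (250 pg/well) in IMAP BSA buffer with 10 U/ml calmodulin and 2.5 mM CaCl2; compound pre-incubated 5 min at room temperature, then 200 nM (final) FAM-cAMP for 30 min. IMAP binding reagent/Tb added, 1 h; TR-FRET 520/490 ratio read. IC50 from sigmoidal dose-response fit.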

Row | SMILES | PDE1b (pIC50)
1 | Cc1oc2ncnc(NC3(C)CC3)c2c1C(=O)N1CCC(F)(c2ccccc2)C1 (centres unmarked) [Example 132, 5-(3-Fluoro-3-phenylpyrrolidine-1-carbonyl)-6-methyl-N-(1-methylcyclopropyl)furo[2,3-d]pyrimidin-4-amine] | >8
2 | Cc1oc2ncnc(NC3(C)CC3)c2c1C(=O)N1CCC(c2ncc(F)cc2Cl)CC1 [Example 334, 5-[4-(3-Chloro-5-fluoropyridin-2-yl)piperidine-1-carbonyl]-6-methyl-N-(1-methylcyclopropyl)furo[2,3-d]pyrimidin-4-amine] | >8
3 | Cc1oc2ncnc(NC3(C)CC3)c2c1C(=O)N1CCN(c2ncccc2F)CC1 [Example 152, 5-[4-(3-Fluoropyridin-2-yl)piperazine-1-carbonyl]-6-methyl-N-(1-methylcyclopropyl)furo[2,3-d]pyrimidin-4-amine] | >8
4 | CCC1(NC(=O)c2c(C)oc3ncnc(NC4(C)CC4)c23)CC1 [Example 145, N-(1-Ethylcyclopropyl)-6-methyl-4-[(1-methylcyclopropyl)amino]furo[2,3-d]pyrimidine-5-carboxamide] | >8
5 | Cc1oc2ncnc(NC3(C)CC3)c2c1C(=O)NCc1cc(C#N)ccc1F [Example 533, N-[(5-Cyano-2-fluorophenyl)methyl]-6-methyl-4-[(1-methylcyclopropyl)amino]furo[2,3-d]pyrimidine-5-carboxamide] | >8
6 | Cc1oc2ncnc(NC3(C)CC3)c2c1C(=O)N1CCC(c2ccc(Br)cn2)C1 (centres unmarked) [Example 373, 5-[3-(5-Bromopyridin-2-yl)pyrrolidine-1-carbonyl]-6-methyl-N-(1-methylcyclopropyl)furo[2,3-d]pyrimidin-4-amine] | >8
7 | Cc1cccc(C2CCN(C(=O)c3c(C)oc4ncnc(NC5(C)CC5)c34)C2)c1 (centres unmarked) [Example 395, 6-Methyl-N-(1-methylcyclopropyl)-5-[3-(3-methylphenyl)pyrrolidine-1-carbonyl]furo[2,3-d]pyrimidin-4-amine] | >8

Same assay, conditions: negative log of half-maximal molar inhibitory concentration; 200 nM FAM-cAMP; values given as bins; read-out: PDE1b (pIC50) (converted)

Row | SMILES | IC50 [nM]
8 | Cc1nc(NC(=O)c2c(C)oc3ncnc(NC4(C)CC4)c23)oc1C [Example 442, N-(Dimethyl-1,3-oxazol-2-yl)-6-methyl-4-[(1-methylcyclopropyl)amino]furo[2,3-d]pyrimidine-5-carboxamide] | 10 to 100
9 | Cc1oc2ncnc(NC3(C)CC3)c2c1C(=O)Nc1cnn(-c2ncccn2)c1 [Example 473, 6-Methyl-4-[(1-methylcyclopropyl)amino]-N-[1-(pyrimidin-2-yl)-1H-pyrazol-4-yl]furo[2,3-d]pyrimidine-5-carboxamide] | 10 to 100
10 | Cc1csc(NC(=O)c2c(C)oc3ncnc(NC4(C)CC4)c23)n1 [Example 443, 6-Methyl-N-(4-methyl-1,3-thiazol-2-yl)-4-[(1-methylcyclopropyl)amino]furo[2,3-d]pyrimidine-5-carboxamide] | 10 to 100
11 | Cc1oc2ncnc(NC3(C)CC3)c2c1C(=O)Nc1ccc(C2CCOCC2)nc1 [Example 735, 6-Methyl-4-[(1-methylcyclopropyl)amino]-N-[6-(oxan-4-yl)pyridin-3-yl]furo[2,3-d]pyrimidine-5-carboxamide] | 100 to 1000
12 | COc1cnc(CNC(=O)c2c(C)oc3ncnc(NC4(C)CC4)c23)cn1 [Example 731, N-[(5-Methoxypyrazin-2-yl)methyl]-6-methyl-4-[(1-methylcyclopropyl)amino]furo[2,3-d]pyrimidine-5-carboxamide] | 10 to 100
13 | Cc1oc2ncnc(NC3(C)CC3)c2c1C(=O)N1CC2C(C1)C2(C)C (centres unmarked) [Example 278, 5-{6,6-Dimethyl-3-azabicyclo[3.1.0]hexane-3-carbonyl}-6-methyl-(1-methylcyclopropyl)furo[2,3-d]pyrimidin-4-amine] | 10 to 100
14 | Cc1oc2ncnc(NC3(C)CC3)c2c1C(=O)N1CCC2(C1)OCc1ccccc12 (centres unmarked) [Example 380, 6-Methyl-N-(1-methylcyclopropyl)-5-(f{3H-spiro[2-benzofuran-1,3′-pyrrolidine]-1′-yl}carbonyl)furo[2,3-d]pyrimidin-4-amine] | 10 to 100
15 | Cc1nc(CNC(=O)c2c(C)oc3ncnc(NC4(C)CC4)c23)co1 [Example 747, 6-Methyl-N-[(2-methyl-1,3-oxazol-4-yl)methyl]-4-[(1-methylcyclopropyl)amino]furo[2,3-d]pyrimidine-5-carboxamide] | 10 to 100
16 | Cc1oc2ncnc(NC3(C)CC3)c2c1C(=O)N1CCc2cc(O)ccc2C1 [Example 330, 2-{6-Methyl-4-[(1-methylcyclopropyl)amino]furo[2,3-d]pyrimidine-5-carbonyl}-1,2,3,4-tetrahydroisoquinolin-6-ol] | 10 to 100
17 | Cc1oc2ncnc(NC3(C)CC3)c2c1C(=O)NC1CCN(c2ncccn2)CC1 [Example 665, 6-Methyl-4-[(1-methylcyclopropyl)amino]-N-[1-(pyrimidin-2-yl)piperidin-4-yl]furo[2,3-d]pyrimidine-5-carboxamide] | 10 to 100
18 | Cc1oc2ncnc(NC3(C)CC3)c2c1C(=O)Nc1ccc(-c2ccoc2)nc1 [Example 34, N-[6-(Furan-3-yl)pyridin-3-yl]-6-methyl-4-[(1-methylcyclopropyl)amino]furo[2,3-d]pyrimidine-5-carboxamide] | 10 to 100
19 | Cc1ccc2c(n1)CCN(C(=O)c1c(C)oc3ncnc(NC4(C)CC4)c13)C2 [Example 284, 6-Methyl-5-(2-methyl-5,6,7,8-tetrahydro-1,6-naphthyridine-6-carbonyl)-N-(1-methylcyclopropyl)furo[2,3-d]pyrimidin-4-amine] | 10 to 100
20 | Cc1oc2ncnc(NC3(C)CC3)c2c1C(=O)NCCC1CCCCC1 [Example 225, N-(2-Cyclohexylethyl)-6-methyl-4-[(1-methylcyclopropyl)amino]furo[2,3-d]pyrimidine-5-carboxamide] | 10 to 100
21 | Cc1oc2ncnc(NC3(C)CC3)c2c1C(=O)Nc1ccn(C)n1 [Example 416, 6-Methyl-N-(1-methyl-1H-pyrazol-3-yl)-4-[(1-methylcyclopropyl)amino]furo[2,3-d]pyrimidine-5-carboxamide] | 10 to 100
22 | Cc1oc2ncnc(NC3(C)CC3)c2c1C(=O)NCc1ncc(C(C)C)o1 [Example 664, 6-Methyl-4-[(1-methylcyclopropyl)amino]-N-{[5-(propan-2-yl)-1,3-oxazol-2-yl]methyl}furo[2,3-d]pyrimidine-5-carboxamide] | 10 to 100
23 | COc1ccccc1C(C)NC(=O)c1c(C)oc2ncnc(NC3(C)CC3)c12 (stereo in doubt) [Example 482, N-[(1S)-1-(2-Methoxyphenyl)ethyl]-6-methyl-4-[(1-methylcyclopropyl)amino]furo[2,3-d]pyrimidine-5-carboxamide] | 10 to 100
24 | Cc1oc2ncnc(NC3(C)CC3)c2c1C(=O)N1CCCN(c2ccccc2)CC1 [Example 157, 6-Methyl-N-(1-methylcyclopropyl)-5-(4-phenyl-1,4-diazepane-1-carbonyl)furo[2,3-d]pyrimidin-4-amine] | 100 to 1000
25 | Cc1oc2ncnc(NC3(C)CC3)c2c1C(=O)NCc1cnc(C2CC2)cn1 [Example 732, N-[(5-Cyclopropylpyrazin-2-yl)methyl]-6-methyl-4-[(1-methylcyclopropyl)amino]furo[2,3-d]pyrimidine-5-carboxamide] | 10 to 100
26 | Cc1oc2ncnc(NC3(C)CC3)c2c1C(=O)N1CCc2ccc(O)cc2C1 [Example 332, 2-{6-Methyl-4-[(1-methylcyclopropyl)amino]furo[2,3-d]pyrimidine-5-carbonyl}-1,2,3,4-tetrahydroisoquinolin-7-ol] | 10 to 100
